This passage reports Activity results from ChEMBL document CHEMBL3272289, “Amino acids. 1. alpha-Hydroxymethylphenylalanines” (1976).

Active and inactive are the calls of the source. The rule behind the calls is not given here.

Experiment [1] relates to Rattus norvegicus. Nature of the experiment: Hypotensive effect in conscious spontaneously hypertensive rat assessed as reduction in blood pressure at 100 to 300 mg/kg, po. Format: functional, organism-based.
For experiment [2], the system named is Rattus norvegicus. Nature of the experiment: Hypotensive effect in conscious spontaneously hypertensive rat assessed as reduction in blood pressure at 50 mg/kg, po administered as single dose. Format: functional.
The test system of experiment [3] is Rattus norvegicus. Nature of the experiment: Hypotensive effect in conscious spontaneously hypertensive rat assessed as reduction in blood pressure at 100 mg/kg, po administered as single dose. Format: functional.

Turning to `NC(CO)(Cc1ccc(O)c(O)c1)C(=O)O` (centres undefined), in the experiment on Rattus norvegicus [1], the outcome was inactive.

On to `NC(CO)(Cc1ccc(O)cc1)C(=O)O` (centres undefined), for which the result in the experiment with Rattus norvegicus [1] was inactive.

Regarding `C[C@](N)(Cc1ccc(O)c(O)c1)C(=O)O` [METHYLDOPA], the results for the Activity with Rattus norvegicus [2] and with Rattus norvegicus [3] were 44 mmHg and 85 mmHg, respectively.
